Test results as given in patent publication US10550111B2, “Pyrimidine urea compound containing isoxazolines and use thereof” (SHENYANG SINOCHEM AGROCHEMICALS R&D CO., LTD, priority 2014, dated 2020).

Key:
Type in all cases: in vivo
[1] = tested on: Setaria glauca (L.) Beauv.; assay: Bioassay of herbicidal activity in greenhouse (further screening)
Procedure, shortened: (§1)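 Visual growth inhibition rating (0 no effect to 100 all weeds dead or not emerged) after track-sprayer application (500 L/hm²) of emulsifiable concentrate. Treatments either pre-emergence, 24 h after sowing, or post-emergence at 2–3-leaf grass and 2–4-leaf broad-leaf stage, greenhouse-grown.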

[2] = tested on: Abutilon theophrasti Medic.; assay: as above
Procedure, shortened: as §1

Zinnia elegans Jacq. = assay: as above
Procedure, shortened: as §1

[3] = tested on: Echinochloa crus-galli (L.) Beauv.; assay: as above
Procedure, shortened: as §1

[4] = tested on: broad-leaf weeds and grass weeds; assay: General screening of herbicidal activity in greenhouse; details: 1000 g a.i./hm^2
Procedure, shortened: as §1

SMILES: CCCCOC(=O)C1(C)CC(c2cc(-n3c(=O)cc(C(F)(F)F)n(C)c3=O)ccc2Cl)=NO1 (stereo not shown) [Compound 286]
- Growth inhibition rate, Post-emergence treatment, Setaria glauca (L.) Beauv. ([1]; dose 37.5 g a.i./hm^2): 15%
- Growth inhibition rate, Post-emergence treatment, Setaria glauca (L.) Beauv. ([1]; dose 150 g a.i./hm^2): 70%
- Growth inhibition rate, Post-emergence treatment, Setaria glauca (L.) Beauv. ([1]; dose 600 g a.i./hm^2): 75%
- Growth inhibition rate, Pre-emergence treatment, Setaria glauca (L.) Beauv. ([1]; dose 37.5 g a.i./hm^2): 0%
- Growth inhibition rate, Pre-emergence treatment, Setaria glauca (L.) Beauv. ([1]; dose 150 g a.i./hm^2): 10%
- Growth inhibition rate, Pre-emergence treatment, Setaria glauca (L.) Beauv. ([1]; dose 600 g a.i./hm^2): 30%
- Growth inhibition rate, Post-emergence treatment, Abutilon theophrasti Medic. ([2]; dose 37.5 g a.i./hm^2): 90%
- Growth inhibition rate, Post-emergence treatment, Abutilon theophrasti Medic. ([2]; dose 150 g a.i./hm^2): 100%
- Growth inhibition rate, Post-emergence treatment, Abutilon theophrasti Medic. ([2]; dose 600 g a.i./hm^2): 100%
- Growth inhibition rate, Pre-emergence treatment, Abutilon theophrasti Medic. ([2]; dose 37.5 g a.i./hm^2): 0%
- Growth inhibition rate, Pre-emergence treatment, Abutilon theophrasti Medic. ([2]; dose 150 g a.i./hm^2): 0%
- Growth inhibition rate, Pre-emergence treatment, Abutilon theophrasti Medic. ([2]; dose 600 g a.i./hm^2): 15%
- Growth inhibition rate, Post-emergence treatment, Zinnia elegans Jacq. (Zinnia elegans Jacq.; dose 37.5 g a.i./hm^2): 85%
- Growth inhibition rate, Post-emergence treatment, Zinnia elegans Jacq. (Zinnia elegans Jacq.; dose 150 g a.i./hm^2): 100%
- Growth inhibition rate, Post-emergence treatment, Zinnia elegans Jacq. (Zinnia elegans Jacq.; dose 600 g a.i./hm^2): 100%
- Growth inhibition rate, Pre-emergence treatment, Zinnia elegans Jacq. (Zinnia elegans Jacq.; dose 37.5 g a.i./hm^2): 0%
- Growth inhibition rate, Pre-emergence treatment, Zinnia elegans Jacq. (Zinnia elegans Jacq.; dose 150 g a.i./hm^2): 0%
- Growth inhibition rate, Pre-emergence treatment, Zinnia elegans Jacq. (Zinnia elegans Jacq.; dose 600 g a.i./hm^2): 10%
- Growth inhibition rate, Post-emergence treatment, Echinochloa crus-galli (L.) Beauv. ([3]; dose 37.5 g a.i./hm^2): 20%
- Growth inhibition rate, Post-emergence treatment, Echinochloa crus-galli (L.) Beauv. ([3]; dose 150 g a.i./hm^2): 60%
- Growth inhibition rate, Post-emergence treatment, Echinochloa crus-galli (L.) Beauv. ([3]; dose 600 g a.i./hm^2): 75%
- Growth inhibition rate, Pre-emergence treatment, Echinochloa crus-galli (L.) Beauv. ([3]; dose 37.5 g a.i./hm^2): 0%
- Growth inhibition rate, Pre-emergence treatment, Echinochloa crus-galli (L.) Beauv. ([3]; dose 150 g a.i./hm^2): 5%
- Growth inhibition rate, Pre-emergence treatment, Echinochloa crus-galli (L.) Beauv. ([3]; dose 600 g a.i./hm^2): 15%
- pre-emergence and post-emergence herbicidal activity against broad-leaf weeds and grass weeds [4]: good

SMILES: CCCOC(=O)C1(C)CC(c2cc(-n3c(=O)cc(C(F)(F)F)n(C)c3=O)c(F)cc2Cl)=NO1 (stereo not shown) [Compound 7]
- Growth inhibition rate, Post-emergence treatment, Setaria glauca (L.) Beauv. ([1]; dose 7.5 g a.i./hm^2): 55%
- Growth inhibition rate, Post-emergence treatment, Setaria glauca (L.) Beauv. ([1]; dose 15 g a.i./hm^2): 90%
- Growth inhibition rate, Post-emergence treatment, Setaria glauca (L.) Beauv. ([1]; dose 30.0 g a.i./hm^2): 90%
- Growth inhibition rate, Post-emergence treatment, Setaria glauca (L.) Beauv. ([1]; dose 60.0 g a.i./hm^2): 100%
- Growth inhibition rate, Post-emergence treatment, Setaria glauca (L.) Beauv. ([1]; dose 120.0 g a.i./hm^2): 100%
- Growth inhibition rate, Post-emergence treatment, Abutilon theophrasti Medic. ([2]; dose 7.5 g a.i./hm^2): 75%
- Growth inhibition rate, Post-emergence treatment, Abutilon theophrasti Medic. ([2]; dose 15 g a.i./hm^2): 98%
- Growth inhibition rate, Post-emergence treatment, Abutilon theophrasti Medic. ([2]; dose 30.0 g a.i./hm^2): 100%
- Growth inhibition rate, Post-emergence treatment, Abutilon theophrasti Medic. ([2]; dose 60.0 g a.i./hm^2): 100%
- Growth inhibition rate, Post-emergence treatment, Abutilon theophrasti Medic. ([2]; dose 120.0 g a.i./hm^2): 100%
- Growth inhibition rate, Post-emergence treatment, Zinnia elegans Jacq. (Zinnia elegans Jacq.; dose 7.5 g a.i./hm^2): 55%
- Growth inhibition rate, Post-emergence treatment, Zinnia elegans Jacq. (Zinnia elegans Jacq.; dose 15 g a.i./hm^2): 60%
- Growth inhibition rate, Post-emergence treatment, Zinnia elegans Jacq. (Zinnia elegans Jacq.; dose 30.0 g a.i./hm^2): 75%
- Growth inhibition rate, Post-emergence treatment, Zinnia elegans Jacq. (Zinnia elegans Jacq.; dose 60.0 g a.i./hm^2): 98%
- Growth inhibition rate, Post-emergence treatment, Zinnia elegans Jacq. (Zinnia elegans Jacq.; dose 120.0 g a.i./hm^2): 100%
- Growth inhibition rate, Post-emergence treatment, Echinochloa crus-galli (L.) Beauv. ([3]; dose 7.5 g a.i./hm^2): 25%
- Growth inhibition rate, Post-emergence treatment, Echinochloa crus-galli (L.) Beauv. ([3]; dose 15 g a.i./hm^2): 90%
- Growth inhibition rate, Post-emergence treatment, Echinochloa crus-galli (L.) Beauv. ([3]; dose 30.0 g a.i./hm^2): 98%
- Growth inhibition rate, Post-emergence treatment, Echinochloa crus-galli (L.) Beauv. ([3]; dose 60.0 g a.i./hm^2): 100%
- Growth inhibition rate, Post-emergence treatment, Echinochloa crus-galli (L.) Beauv. ([3]; dose 120.0 g a.i./hm^2): 100%
- pre-emergence and post-emergence herbicidal activity against broad-leaf weeds and grass weeds [4]: good
